Assay results reported in patent US20220348595A1, “COMPOUNDS AND METHODS FOR THE TARGETED DEGRADATION OF ESTROGEN RECEPTORS” (Endotarget Inc., priority 2021, published 2022).
Where two headings read alike, the source gives them in different places.

Legend:
Format in all cases: cell-based
[1] = system: MCF-7 breast cancer cells; test: MCF-7 proliferation / cell viability assay; settings: MCF-7 proliferation with 0.1 nM 17-beta estradiol, read-out: IC50 (anti-proliferation)
Protocol: The Anti-Proliferative Activities of the Exemplary Compounds were Assessed by a Cell Viability Assay in MCF-7 Breast Cancer Cells
MCF-7 cells were plated in six-well plates at a density of 50,000 each well in 5% FBS DMEM medium. The cells were then treated with exemplary compounds or fulvestrant separately at 6 different doses ranging from 10^−10 M to 10^−5 M for 5 days, while equal volumes of DMSO were used as vehicle controls. Viable cell numbers were counted with a Z Series Coulter Counter instrument (Beckman-Coulter) following manufacturer's instructions. The ratio of drug treated viable cell numbers to vehicle treated viable cell numbers was defined as survival ratio where the control has the survival ratio of 100%.

[2] = molecular target: T1, ERα (Homo sapiens, UniProt P03372); test: ER degradation in MCF-7 cells (Western blot); settings: for DC50: ER degradation, 24 hours; for Dmax: MCF7, Maximal ER degradation, read-out: Dmax
T1 construct: endogenous in cells; host or cells: MCF-7
T1 sequence (P03372 1-595): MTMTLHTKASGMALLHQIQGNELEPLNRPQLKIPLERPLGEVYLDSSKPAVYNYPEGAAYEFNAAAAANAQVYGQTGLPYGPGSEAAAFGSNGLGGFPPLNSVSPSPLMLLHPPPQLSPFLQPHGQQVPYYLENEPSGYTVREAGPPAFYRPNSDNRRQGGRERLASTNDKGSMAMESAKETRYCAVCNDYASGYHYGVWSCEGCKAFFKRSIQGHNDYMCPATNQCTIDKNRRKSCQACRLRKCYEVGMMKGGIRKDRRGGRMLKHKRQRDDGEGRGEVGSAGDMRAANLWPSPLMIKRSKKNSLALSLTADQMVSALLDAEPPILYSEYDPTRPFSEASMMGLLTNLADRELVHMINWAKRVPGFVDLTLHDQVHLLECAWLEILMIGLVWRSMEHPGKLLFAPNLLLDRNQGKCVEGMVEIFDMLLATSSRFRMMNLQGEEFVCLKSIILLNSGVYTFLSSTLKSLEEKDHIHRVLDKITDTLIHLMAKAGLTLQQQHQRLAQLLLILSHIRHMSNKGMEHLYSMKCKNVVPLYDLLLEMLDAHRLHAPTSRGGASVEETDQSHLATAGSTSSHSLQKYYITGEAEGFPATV
Protocol: Degradation of ER in MCF-7 Breast Cancer Cells by Exemplary Compounds of the Present Disclosure
MCF-7 cells were plated in 24-well plates at a density of 10^5 cells/well. Media containing various drug concentrations were added on the day following plating (day 0) and allowed to incubate for 24 hours for Western blot. Media with the tested compound was changed every other day. Cells were lysed, snapped frozen in liquid nitrogen, and stored at −80° C. until assay for ERα. Media were removed and dishes were washed with 1× DPBS. Lysates were made by adding 150 μL of complete lysis solution and scraping cells into a 1.5 mL microcentrifuge tube. Lysates were placed on a rotisserie at 4° C. for 30 min and then spun at 4° C. at 12000 rcf for 10 min. Supernatants were assayed for protein content, snap-frozen, and stored a −80° C. if not run immediately. Then 50 μg of protein was subjected to Western blot protocol. Membranes were blocked and then incubated with 1:200 dilution of ERα antibody at 4° C. overnight followed by 1:10000 dilution of secondary antibody for 1 h at room temperature. They were then imaged on a LICOR infrared scanner.
FIGS. 1 to 10 show the ER degradation efficacy of compounds 3, 5, 9, 11, 12, 16, 18, 19, 20, 21, 23, 24, 25, 26, 27, 28, 29, 30, 31, 32, 33, 34, 37, 38, and 40 in MCF-7 cells at various concentrations. Degradation of ER was expressed as an DC50 value and was determined for exemplary compounds in Table 1 by calculation of the concentration of compound that was required to give a 50% reduction of ER expression level. Maximal degradation of ER was expressed as a Dmax value by measuring the highest percentage of ER reduction achieved by exemplary compound in the treatment concentration range.

[3] = molecular target: T2, ER (Homo sapiens, UniProt P03372); test: ER antagonism (T47D ERE luciferase), T47d-kb-Luc cells; settings: read-out: IC50 (ER antagonistm)
T2 construct: endogenous in cells; host or cells: T47d-kb-Luc (T47D stably transfected with a luciferase reporter gene only)
T2 sequence (P03372 1-595): T1 sequence (P03372 1-595)
Protocol: The Antiestrogenic Activity of the Exemplary Compounds was Assessed in T47d-kb-Luc Stably Transfected Human Breast Cancer Cell
Antagonist activities were measured by the compound's ability to inhibit the activity of estradiol, the natural estrogen. Data were then normalized relative to the activity of the estradiol control and determinations were performed for five concentrations of the samples in quadruplicate in at least three separate experiments.

Structure (SMILES)	IC50 [1] [nM]	DC50 [2] [nM]	IC50 [3] [nM]	IC50 ([1]; Homo sapiens, MCF7) [nM]	Dmax [2] [%]
CCC(=C(c1ccc(OCCN2CCN(CC3CCN(c4ccc5c(c4)C(=O)N(C4CCC(=O)NC4=O)C5=O)CC3)CC2)cc1)c1ccc(B(O)O)cc1)c1ccccc1 (stereo in doubt) [Compound 18, (E)-(4-(1-(4-(2-(4-((1-(2-(2,6-dioxopiperidin-3-yl)-1,3-dioxoisoindolin-5-yl)piperidin-4-yl)methyl)piperazin-1-yl)ethoxy)phenyl)-2-phenylbut-1-en-1-yl)phenyl)boronic acid]	10 to 50	< 10	10 to 50		
CC/C(=C(\c1ccc(B(O)O)cc1)c1ccc(N2CCC(CN3CCN(c4ccc5c(c4)C(=O)N(C4CCC(=O)NC4=O)C5=O)CC3)CC2)cc1)c1ccccc1 (stereo not shown) [Compound 5, (Z)-(4-(1-(4-(4-((4-(2-(2,6-dioxopiperidin-3-yl)-1,3-dioxoisoindolin-5-yl)piperazin-1-yl)methyl)piperidin-1-yl)phenyl)-2-phenylbut-1-en-1-yl)phenyl)boronic acid]		10 to 50	10 to 50	> 50	> 90
CC/C(=C(/c1ccc(B(O)O)cc1)c1ccc(N2CCC(CN3CCN(c4ccc5c(c4)C(=O)N(C4CCC(=O)NC4=O)C5=O)CC3)CC2)cc1)c1ccccc1 (stereo not shown) [Compound 6, (E)-(4-(1-(4-(4-((4-(2-(2,6-dioxopiperidin-3-yl)-1,3-dioxoisoindolin-5-yl)piperazin-1-yl)methyl)piperidin-1-yl)phenyl)-2-phenylbut-1-en-1-yl)phenyl)boronic acid]		10 to 50	10 to 50	> 50	> 90
CC/C(=C(\c1ccc(B2OC(C)(C)C(C)(C)O2)cc1)c1ccc(N2CCC(CCN3CCN(c4ccc5c(c4)CN(C4CCC(=O)NC4=O)C5=O)CC3)CC2)cc1)c1ccccc1 (stereo not shown) [Compound 9, (Z)-3-(1-oxo-5-(4-(2-(1-(4-(2-phenyl-1-(4-(4,4,5,5-tetramethyl-1,3,2-dioxaborolan-2-yl)phenyl)but-1-en-1-yl)phenyl)piperidin-4-yl)ethyl)piperazin-1-yl)isoindolin-2-yl)piperidine-2,6-dione]		10 to 50	< 10	< 10	> 90
CC/C(=C(/c1ccc(B2OC(C)(C)C(C)(C)O2)cc1)c1ccc(N2CCC(CCN3CCN(c4ccc5c(c4)CN(C4CCC(=O)NC4=O)C5=O)CC3)CC2)cc1)c1ccccc1 (stereo not shown) [Compound 10, (E)-3-(1-oxo-5-(4-(2-(1-(4-(2-phenyl-1-(4-(4,4,5,5-tetramethyl-1,3,2-dioxaborolan-2-yl)phenyl)but-1-en-1-yl)phenyl)piperidin-4-yl)ethyl)piperazin-1-yl)isoindolin-2-yl)piperidine-2,6-dione]		10 to 50	< 10	< 10	> 90
CC/C(=C(\c1ccc(B(O)O)cc1)c1ccc(N2CCC(CNC3CCN(c4ccc5c(c4)C(=O)N(C4CCC(=O)NC4=O)C5)CC3)CC2)cc1)c1ccccc1 (stereo not shown) [Compound 13, (Z)-(4-(1-(4-(4-(((1-(2-(2,6-dioxopiperidin-3-yl)-3-oxoisoindolin-5-yl)piperidin-4-yl)amino)methyl)piperidin-1-yl)phenyl)-2-phenylbut-1-en-1-yl)phenyl)boronic acid]		< 10	< 10	< 10	> 90

More lines, now with the values ahead:

IC50 [1] [nM]	DC50 [2] [nM]	IC50 [3] [nM]	IC50 ([1]; Homo sapiens, MCF7) [nM]	Dmax [2] [%]	Structure (SMILES)
	< 10	10 to 50	10 to 50	> 90	CC/C(=C(\c1ccc(B(O)O)cc1)c1ccc(N2CCC(CN3CCN(c4ccc5c(c4)CN(C4CCC(=O)NC4=O)C5=O)CC3)CC2)cc1)c1ccccc1 (stereo not shown) [Compound 1]
	< 10	10 to 50	10 to 50	> 90	CC/C(=C(/c1ccc(B(O)O)cc1)c1ccc(N2CCC(CN3CCN(c4ccc5c(c4)CN(C4CCC(=O)NC4=O)C5=O)CC3)CC2)cc1)c1ccccc1 (stereo not shown) [Compound 2, (E)-(4-(1-(4-(4-((4-(2-(2,6-dioxopiperidin-3-yl)-1-oxoisoindolin-5-yl)piperazin-1-yl)methyl)piperidin-1-yl)phenyl)-2-phenylbut-1-en-1-yl)phenyl)boronic acid]
	> 50	< 10	< 10	> 75	CC/C(=C(\c1ccc(B(O)O)cc1)c1ccc(N2CCC(CN3CCN(c4ccc5c(c4)C(=O)N(C4CCC(=O)NC4=O)C5)CC3)CC2)cc1)c1ccccc1 (stereo not shown) [Compound 3, (Z)-(4-(1-(4-(4-((4-(2-(2,6-dioxopiperidin-3-yl)-3-oxoisoindolin-5-yl)piperazin-1-yl)methyl)piperidin-1-yl)phenyl)-2-phenylbut-1-en-1-yl)phenyl)boronic acid]
	> 50	< 10	< 10	> 75	CC/C(=C(/c1ccc(B(O)O)cc1)c1ccc(N2CCC(CN3CCN(c4ccc5c(c4)C(=O)N(C4CCC(=O)NC4=O)C5)CC3)CC2)cc1)c1ccccc1 (stereo not shown) [Compound 4, (E)-(4-(1-(4-(4-((4-(2-(2,6-dioxopiperidin-3-yl)-3-oxoisoindolin-5-yl)piperazin-1-yl)methyl)piperidin-1-yl)phenyl)-2-phenylbut-1-en-1-yl)phenyl)boronic acid]
	10 to 50	< 10	10 to 50	> 90	CC/C(=C(\c1ccc(B(O)O)cc1)c1ccc(N2CCC(CCN3CCN(c4ccc5c(c4)CN(C4CCC(=O)NC4=O)C5=O)CC3)CC2)cc1)c1ccccc1 (stereo not shown) [Compound 7, (Z)-(4-(1-(4-(4-(2-(4-(2-(2,6-dioxopiperidin-3-yl)-1-oxoisoindolin-5-yl)piperazin-1-yl)ethyl)piperidin-1-yl)phenyl)-2-phenylbut-1-en-1-yl)phenyl)boronic acid]
	10 to 50	< 10	10 to 50	> 90	CC/C(=C(/c1ccc(B(O)O)cc1)c1ccc(N2CCC(CCN3CCN(c4ccc5c(c4)CN(C4CCC(=O)NC4=O)C5=O)CC3)CC2)cc1)c1ccccc1 (stereo not shown) [Compound 8, (E)-(4-(1-(4-(4-(2-(4-(2-(2,6-dioxopiperidin-3-yl)-1-oxoisoindolin-5-yl)piperazin-1-yl)ethyl)piperidin-1-yl)phenyl)-2-phenylbut-1-en-1-yl)phenyl)boronic acid]
	< 10	< 10	< 10	> 90	CC/C(=C(\c1ccc(B(O)O)cc1)c1ccc(N2CCC(CNC3CCN(c4ccc5c(c4)CN(C4CCC(=O)NC4=O)C5=O)CC3)CC2)cc1)c1ccccc1 (stereo not shown) [Compound 11]
	< 10	< 10	< 10	> 90	CC/C(=C(/c1ccc(B(O)O)cc1)c1ccc(N2CCC(CNC3CCN(c4ccc5c(c4)CN(C4CCC(=O)NC4=O)C5=O)CC3)CC2)cc1)c1ccccc1 (stereo not shown) [Compound 12]
